# From patent publication US12479940B2, “Amide compound, polymerizable composition, cured material, and method of manufacturing cured material” (ADEKA CORPORATION, priority 2019, dated 2025)
# Text: As the polymerization initiator (the water-soluble polymerization initiator), N,N-bis(2-hydroxyethyl)butane-1-aminium=phenyl(2,4,6-trimethylbenzoyl)phosphinate represented by A3, 1-[4-(2-hydroxyethoxy)phenyl]-2-hydroxy-2-methyl-1-propan-1-one represented by A32, and N,N-bis(2-hydroxyethyl)butane-1-aminium=9-oxo-9H thioxanthene-4-carboxylate represented by A57 were used.
row,Compound,solubility in water
1,"CC(C)(O)C(=O)c1ccc(OCCO)cc1 [A32, 1-[4-(2-hydroxyethoxy)phenyl]-2-hydroxy-2-methyl-1-propan-1-one]",≥ 1 mass %
2,"Cc1cc(C)c(C(=O)P(=O)(O)c2ccccc2)c(C)c1 [A3, N,N-bis(2-hydroxyethyl)butane-1-aminium=phenyl(2,4,6-trimethylbenzoyl)phosphinate]",≥ 1 mass %
